In US6462063B1, “C-proteinase inhibitors” (Fibrogen, Inc., priority 2000, dated 2002):

Molecular target: T1, recombinant human C-proteinase (Homo sapiens, UniProt P13497)
T1 sequence (P13497 121-986): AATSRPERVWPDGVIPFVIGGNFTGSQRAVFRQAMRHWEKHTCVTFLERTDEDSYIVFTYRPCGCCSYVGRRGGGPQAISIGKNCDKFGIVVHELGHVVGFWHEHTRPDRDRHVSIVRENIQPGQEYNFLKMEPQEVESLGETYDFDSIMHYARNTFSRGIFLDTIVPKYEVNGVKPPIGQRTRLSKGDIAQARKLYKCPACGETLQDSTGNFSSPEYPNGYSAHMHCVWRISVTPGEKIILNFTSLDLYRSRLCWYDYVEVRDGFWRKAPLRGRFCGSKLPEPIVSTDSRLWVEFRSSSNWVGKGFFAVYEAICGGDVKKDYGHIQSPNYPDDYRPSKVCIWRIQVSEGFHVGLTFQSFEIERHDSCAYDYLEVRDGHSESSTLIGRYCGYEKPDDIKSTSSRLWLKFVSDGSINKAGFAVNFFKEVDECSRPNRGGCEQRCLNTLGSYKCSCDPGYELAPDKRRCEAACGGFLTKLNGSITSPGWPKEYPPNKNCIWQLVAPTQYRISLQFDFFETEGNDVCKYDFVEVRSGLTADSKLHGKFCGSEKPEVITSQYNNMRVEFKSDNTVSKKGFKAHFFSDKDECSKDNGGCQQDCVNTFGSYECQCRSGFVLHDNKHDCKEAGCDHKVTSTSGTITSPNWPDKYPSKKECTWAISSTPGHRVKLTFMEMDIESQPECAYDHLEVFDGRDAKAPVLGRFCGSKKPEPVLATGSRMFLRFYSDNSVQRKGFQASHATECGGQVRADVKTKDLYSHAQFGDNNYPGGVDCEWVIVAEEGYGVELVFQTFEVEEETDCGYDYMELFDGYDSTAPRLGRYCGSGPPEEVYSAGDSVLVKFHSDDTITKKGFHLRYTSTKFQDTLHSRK
Assay: C-Proteinase IC50 assay, fluorogenic peptide
Format: biochemical
Settings: 50 μM fluorogenic peptide, pH 7.6, 4 hours at 37° C., fluorescence, read-out: C-Proteinase Inhibitor IC50
Method: The following assay may be used to determine the level of activity and effect of the different compounds of the present invention on C-proteinase activity. […] The reaction proceeded for 4 hours at 37° C. and the fluorescence was measured using a Bio-Tek Fl-600.

Row | SMILES | IC50
1 | O=C(CCCC1C(=O)N(C23CC4CC(CC(C4)C2)C3)C(=O)N1Cc1cccc(O)c1)NO (stereo not drawn) [Compound 161] | 140 nM
2 | O=C(CCCC1C(=O)N(C23CC4CC(CC(C4)C2)C3)C(=O)N1Cc1ccco1)NO (stereo not drawn) [Compound 176] | 230 nM
3 | O=C(CCCC1C(=O)N(C23CC4CC(CC(C4)C2)C3)C(=O)N1CC1CCCCC1)NO (stereo not drawn) [Compound 127] | 290 nM
4 | COc1ccc(O)c(CN2C(=O)N(C34CC5CC(CC(C5)C3)C4)C(=O)C2CCCC(=O)NO)c1 (stereo not drawn) [Compound 139] | 260 nM
5 | O=C(CCCC1C(=O)N(C23CC4CC(CC(C4)C2)C3)C(=O)N1Cc1ccccc1O)NO (stereo not drawn) [Compound 155] | 270 nM
6 | O=C(CCCC1C(=O)N(C2CCCCC2)C(=O)N1Cc1ccccc1)NO (stereo not drawn) [Compound 107] | 3330 nM
7 | O=C(CCCC1C(=O)N(C23CC4CC(CC(C4)C2)C3)C(=O)N1Cc1cc(O)ccc1O)NO (stereo not drawn) [Compound 137] | 59 nM
8 | O=C(CCCC1C(=O)N(C23CC4CC(CC(C4)C2)C3)C(=O)N1Cc1ccccc1)NO (stereo not drawn) [Compound 102] | 770 nM
9 | O=C(CSCC1C(=O)N(C23CC4CC(CC(C4)C2)C3)C(=O)N1Cc1ccccn1)NO (stereo not drawn) [Compound 199] | 290 nM

Continued by falling IC50, values first:

Row | IC50 | SMILES
10 | 1240 nM | O=C(CCCC1C(=O)N(C2CCCCC2)C(=O)N1Cc1cccc(O)c1)NO (stereo not drawn) [Compound 198]
11 | 1080 nM | O=C(CCCC1C(=O)N(C2CCCCC2)C(=O)N1Cc1ccccc1O)NO (stereo not drawn) [Compound 195]
12 | 600 nM | COc1ccccc1CN1C(=O)N(C23CC4CC(CC(C4)C2)C3)C(=O)C1CCCC(=O)NO (stereo not drawn) [Compound 163]
13 | 430 nM | COc1cccc(CN2C(=O)N(C34CC5CC(CC(C5)C3)C4)C(=O)C2CCCC(=O)NO)c1O (stereo not drawn) [Compound 168]
14 | 430 nM | O=C(CCCC1C(=O)N(C23CC4CC(CC(C4)C2)C3)C(=O)N1CC1CC1)NO (stereo not drawn) [Compound 131]
15 | 400 nM | O=C(CCCC1C(=O)N(C23CC4CC(CC(C4)C2)C3)C(=O)N1CC1CC2C=CC1C2)NO (stereo not drawn) [Compound 128]
16 | 230 nM | O=C(CCCC1C(=O)N(C23CC4CC(CC(C4)C2)C3)C(=O)N1Cc1cccc2c1OCO2)NO (stereo not drawn) [Compound 179]
17 | 210 nM | O=C(CCCC1C(=O)N(C23CC4CC(CC(C4)C2)C3)C(=O)N1CC1=COCCC1)NO (stereo not drawn) [Compound 192]
18 | 210 nM | O=C(CCCC1C(=O)N(C23CC4CC(CC(C4)C2)C3)C(=O)N1Cc1ccccn1)NO (stereo not drawn) [Compound 174]
